Where two headings read alike, the source gives them in different places.
Columns and labels:
[1] = system: mouse ES cell-derived definitive endoderm; test: Anteriorization of mouse ESC-derived definitive endoderm to FoxA2+Sox2+ anterior foregut endoderm; assay type: cell-based; conditions: for effect on FoxA2+Sox2+ cells: treatment of definitive endoderm at the anteriorization step
Description: This technology was adapted herein to generate definitive endoderm (DE) from mouse ES cells. […] Next, it was asked if the newly generated DE cells have the competence to generate Nkx2.1+ cells. […] Since the inventors had already incorporated BMP inhibition during DE generation (FIG. 7), the question whether continuous BMP inhibition is necessary for anteriorization or if TGFβ inhibition alone was sufficient for anterior patterning was explored. Endoderm was treated with combinations of Activin (a TGFβ agonist), A-83-01 (a TGFβ antagonist), BMP4, and Dorsomorphin (a BMP4 antagonist) for 2 days (FIG. 2B). The number of FoxA2+Sox2+ anterior endoderm cells was compared to the total number of FoxA2+ endoderm cells (FIG. 2B). The treated cells were further exposed to the BMP4/FGF2/WNT agonist cocktail for another 2 days to examine their competence to generate Nkx2.1+ cells (FIG. 2B). […] It was tested if their inhibition would enhance anteriorization together with a TGFβ inhibitor.
Mouse Endoderm Anteriorization and Nkx2.1 Cell Differentiation: Mouse definitive endoderm was generated as described herein. To anteriorize endoderm, on and after day 5, the cells were split and re-seeded on to the plates pre-coated with 804G-conditioned medium and fed with DO medium+0.5-1 μM A8301 (CalBiochem, 616454) for 2 days. Then the media was rinsed with DO medium 2 times and switched to DO medium supplemented with 50 ng/ml BMP4, 100 ng/ml FGF2 (GIBCO, PHG0026), and 5-10 nM GSK3iXV for another 2-3 days. To generate Nkx2.1+Sox2+ proximal progenitor cells, the cells were rinsed with DO medium 2 times and switched to DO medium containing RA-supplemented B27, 50 ng/ml BMP7, 50 ng/ml FGF7, 100 nM IWR-1, and 1-2 μM PD98059 for 2 days or longer times.
Immunofluorescence: At each differentiation step, the cells were fixed with fresh paraformaldehyde (4%) for 15 min at room temperature, rinsed in PBS, washed with PBS+0.2% Triton X-100 and incubated with the primary antibodies at 4° C. overnight (>16 hrs) diluted in PBS+1% BSA. Following incubation, the cells were rinsed 4 times PBS+0.2% Triton X-100, and incubated with secondary antibodies at room temperature for 2 hours. The images were visualized using an Olympus IX71 inverted fluorescence microscope or a Nikon A1 Confocal Laser microscope.
The secondary antibodies were purchased from Invitrogen (AlexaFluor-549 and AlexaFluor-488). The quantification was performed by counting at least 5 random fields at 20× magnification and calculating the average and standard deviation.

[2] = system: mouse ESC-derived endoderm / anterior foregut endoderm cells; conditions: for NKX2.1 induction: anteriorized endoderm, BMP4 alone, or FGF2 or/and GSK3i without BMP4
Text: Dorsomorphin inhibits BMP signaling through the SMAD pathway while PD98059 inhibits MAPK signaling.
A recent report described a monolayer-based strategy using synergistic activation of Nodal and Wnt-β-catenin signaling as well as staged BMP4 inhibition to direct mouse ES cells towards an endoderm fate with high efficiency (Sherwood et al., 2011). This technology was adapted herein to generate definitive endoderm (DE) from mouse ES cells. […] Snoeck and colleagues reported that Noggin (a BMP inhibitor) synergized with SB431542 (a TGFβ inhibitor) to suppress a posterior endoderm fate (Cdx2+) in favor of an anterior endoderm fate (Sox2+) (Green et al., 2011). […] Endoderm was treated with combinations of Activin (a TGFβ agonist), A-83-01 (a TGFβ antagonist), BMP4, and Dorsomorphin (a BMP4 antagonist) for 2 days (FIG. 2B). The number of FoxA2+Sox2+ anterior endoderm cells was compared to the total number of FoxA2+ endoderm cells (FIG. 2B). The treated cells were further exposed to the BMP4/FGF2/WNT agonist cocktail for another 2 days to examine their competence to generate Nkx2.1+ cells (FIG. 2B). […] It was tested if their inhibition would enhance anteriorization together with a TGFβ inhibitor.
The expression of lung and other anterior cell fate lineage genes including FoxN1 (thymus), Pax8 (thyroid), and Pax9 and Tbx1 (pharyngeal pouch endoderm) was analyzed by real-time qPCR (Figure S4A).
It was tested if BMP4, FGF2, and WNT signaling are each required to specify lung endoderm from the anterior foregut in an in vitro mouse ESC differentiation system. To do this, anteriorized endoderm cells were exposed to combinations of BMP4, FGF2 and WNT agonists and antagonists (FIGS. 3A and B).
These complexes translocate to the nucleus and activate expression of target genes (von Bubnoff and Cho, 2001; Chen et al., 2004; Sieber et al., 2009; Miyazono et al., 2010). Besides Smad1/5/8-mediated transcription, BMP-induced receptor complexes can activate the mitogen-activated protein kinase (MAPK) pathway via ERK, […] or p38 (Kozawa et al., 2002).
(§1) Mouse Endoderm Anteriorization and Nkx2.1 Cell Differentiation: Mouse definitive endoderm was generated as described herein. To anteriorize endoderm, on and after day 5, the cells were split and re-seeded on to the plates pre-coated with 804G-conditioned medium and fed with DO medium+0.5-1 μM A8301 (CalBiochem, 616454) for 2 days.

[3] = system: human Cystic Fibrosis iPSC-derived definitive endoderm cells; test: Anteriorization of human Cystic Fibrosis iPSC-derived definitive endoderm (SOX2 induction); assay type: cell-based
Description: FIG. 6 is a schematic depicting an exemplary strategy and time line to generate Nkx2.1+ lung multipotent progenitors from human iPSCs. Data from the experiment indicate a step-wise differentiation of Nkx2.1+ lung progenitors from human iPSCs. A high yield of definitive endoderm from CF1 RiPS cells was obtained after treatment for 4 days in RPMI-1640 media in the presence of 2% B27 supplement, Activin A (100 ng/ml) and 5 μM PI3 Kinase inhibitor LY294002 with more than 90% of cells co-expressing transcription factors SOX17 and FOXA2 (data not shown). Anteriorization of endoderm into foregut endoderm cells was observed by detecting SOX2 expression in Foxa2+ cells derived from CF1 RiPS cells after 4 days of treatment with 500 nM A-83-01 (TGFβ antagonist) and 100 ng/ml Noggin (BMP4 antagonist) (data not shown). NKX2.1 staining was performed after anteriorization to foregut cells at D8 with serum-free medium containing 20 ng/ml BMP4, 20 ng/ml FGF2 and 5 nM GSK3iXV for 4 days (data not shown). […] In addition, confocal images following immunofluorescence staining indicates some Nkx2.1+ sphere contain basal cells positive for p63 (data not shown).
By using anteriorization conditions similar to Green et al., the induction of SOX2 expression in DE cells was obtained with efficiencies of up to 50%-60% after 4 days of treatment with A-83-01 (a TGFβ antagonist; data not shown). […]

[4] = system: mouse ESC-derived Nkx2.1+ cells; test: Generation of proximal airway progenitors from mouse ESC-derived Nkx2.1+ lung endoderm cells; assay type: cell-based
Description: as §1

[5] = system: human iPSC-derived Foxa2+Sox2+ anterior endoderm; test: Chemical screening and differentiation of Nkx2.1+ lung progenitors from human iPSC-derived Foxa2+Sox2+ anterior endoderm; assay type: cell-based
Description: In order to increase the efficiency of Nkx2.1+ lung progenitor production, the inventors performed an unbiased high throughput chemical screening on a kinase pathway inhibitor library and an NIH clinical drug library to identify small molecule compounds and FDA-approved clinical drugs that can facilitate NKX2.1-positive lung progenitor differentiation. The platform for chemical screening is illustrated in FIG. 14A. The screening was performed at the step of conversion of Foxa2+Sox2+ anterior endoderm to Nkx2.1+ lung endoderm.
At least five molecules were identified from the Kinase Compound Set (240 compounds) and at least 6 drugs were identified from the NIH Clinical Collection (400 compounds) that produced statistically significant (more than 3 fold) increases in the percentage of Nkx2.1+ cells (FIG. 14B). These Nkx2.1+ cells have been further stained in separate experiments to exclude the expression of neuronal lineage marker Tuj1 and thyroid lineage marker Pax8. In addition, all positive candidates identified in the primary screen have been assessed for drug duration and dose effects to increase the formation of lung progenitors, and they have been evaluated for other effects including inducing cytotoxicity, and cellular proliferation by Ki67 staining. […] It was also determined that BMP4 is dispensable for human lung progenitor differentiation from iPSCs, indicating a species difference in lung development in human and mouse.
Several of these negative compounds are MEK1/2 antagonists. […] For example, endoderm-specific deletion of MEK1/2 results in lung agenesis in mice (unpublished data).
After studying the additive and synergistic effects of the positive hits, a robust and economically efficient new protocol was devised for the generation of a highly enriched population of Nkx2.1+ lung progenitors (up to 85%-90%) from multiple iPS cell lines in xeno-free conditions in order to keep the cells suitable for future clinical applications. This exemplary differentiation medium contains one Wnt agonist (e.g., 0.5 uM CHIR9902), one PI3 kinase inhibitor (e.g., 0.02-0.05 uM PIK-75), one clinically used drug (e.g., 0.02-0.05 uM methotrexate), one BMP antagonist (e.g., 2-4 uM Dorsomorphin) and a single growth factor (e.g., 10-50 ng/ml FGF2). FIG. 12 is the summary of the newly developed step-wise airway progenitor differentiation protocol from iPSC to airway progenitors. Many other protocols can be generated by one of skill in the art from this basic protocol (RPMI+2% B27+10-50 ng/ml FGF2+0.5 uM CHIR9902+2-4 uM Dorsomorphin) together with the compounds listed in FIG. 14.

With `Cc1cccc(-c2nn(C(=S)Nc3ccccc3)cc2-c2ccnc3ccccc23)n1` [A-83-01] the “FoxA2+Sox2+ anterior endoderm (of total FoxA2+ cells)” value ([1]; TGFβ inhibition, 2 days) was 40%-55, the “Nkx2.1+ cells (of total cells)” value ([2]; after 2 days TGFβ inhibition, then BMP4/FGF2/WNT agonist cocktail 2 days) was 7%-13 and the “induction of SOX2 expression in DE cells, efficiency” value ([3]; 4 days of treatment) was 50%-60.

`COC(=O)c1ccc[cH-]1.O=C1NC(=O)c2c1c1cccnc1c1[n-]c3c(Br)cc(O)cc3c21.[CH+]=O.[Ru]` [GSK3i] was tested, and the NKX2.1 induction [2] was “not sufficient for NKX2.1 induction”.

For `O=C(Nc1cccc2cccnc12)c1ccc(N2C(=O)[C@@H]3[C@H](C2=O)[C@@H]2C=C[C@H]3C2)cc1` [IWR-1], the “effect on Nkx2.1+Sox2+ cell production” value ([4]; individual factors removed or replaced in proximal induction medium) was “most pronounced effect” and the “effect on FoxA2+Sox2+ cells” value [1] was “did not increase the FoxA2+Sox2+ population”.

In the case of `COc1cccc(-c2cc(=O)c3ccccc3o2)c1N` [PD98059], the “Nkx2.1+Sox2+ airway progenitor cells (of total number of Nkx2.1+ cells)” value ([4]; from day 9, 2-3 days, 1%-2% before treatment) is reported as “up to 18%”, the cell death [2] is reported as “Significant cell death” and the “effect on generation of Nkx2.1+ cells” value ([2]; added to BMP4 induction (pSmad1/5/8 or MAPKK/ERK inhibition)) is reported as “only partially decreased the Nkx2.1+ cell proportion”.

In the case of `CCN(CC)CCCCNc1ncc2cc(-c3cc(OC)cc(OC)c3)c(NC(=O)NC(C)(C)C)nc2n1` [PD173074], the cell death ([1]; together with a TGFβ inhibitor at anteriorization) is reported as “induced cell death”.

In the case of `CCCCCCCCCCCCCC(=O)O[C@@H]1[C@@H](C)[C@@]2(O)[C@@H](C=C(CO)C[C@]3(O)C(=O)C(C)=C[C@@H]23)[C@@H]2C(C)(C)[C@]12OC(C)=O` [phorbol 12-myristate 13-acetate], the “NKX2.1+ cell production” value ([5]; in vitro differentiation systems) is reported as “stimulates NKX2.1+ cell production”.

For “BMP4: bone morphogenic protein 4, growth factor”, the “neuroectodermal marker Tuj1” value ([1]; BMP4 present between days 5-7) was “less neuroectodermal marker Tuj1 was present”, the NKX2.1 induction [2] was “could induce NKX2.1 expression” and the “requirement for human lung progenitor differentiation from iPSCs” value [5] was “dispensable”. The NKX2.1 expression level ([5]; addition of BMP4) was “decreases NKX2.1 expression” and the “total NKX2.1+ lung progenitor cell number” value ([5]; addition of BMP4) was “without affecting the total NKX2.1+ lung progenitor cell number”.

In the case of FGF2: fibroblast growth factor, the “effect on Nkx2.1+ cells” value ([2]; added dose of FGF2 despite presumptive endogenous FGF signaling) is reported as “upregulated Nkx2.1+ cells” and the NKX2.1 induction [2] is reported as “not sufficient for NKX2.1 induction”.

B1: BMP7: BMP family member binding type I receptor ALK2 (protein, UniProt P18075 293-431, looked up)
Bone morphogenetic protein 7: STGSKQRSQNRSKTPKNQEALRMANVAENSSSDQRQACKKHELYVSFRDLGWQDWIIAPEGYAAYYCEGECAFPLNSYMNATNHAIVQTLVHFINPETVPKPCCAPTQLNAISVLYFDDSSNVILKKYRNMVVRACGCH
With B1 the “induction of Nkx2.1+ cells from the anterior endoderm compared to BMP4” value ([2]; BMP7 10 ng/ml) was “had no effect” and the “induction of Nkx2.1+ cells from the anterior endoderm” value ([2]; increased concentration (>100 ng/ml)) was “still failed to generate Nkx2.1+ cells”.

B2: Activin: a TGFβ agonist (protein, UniProt P08476 311-426, looked up)
Inhibin beta A chain: GLECDGKVNICCKKQFFVSFKDIGWNDWIIAPSGYHANYCEGECPSHIAGTSGSSLSFHSTVINHYRMRGHSPFANLKSCCVPTKLRPMSMLYYDDGQNIIKKDIQNMIVEECGCS
modifications: Inhibin beta A chain
notes: a TGFβ agonist
With B2 the “effect on FoxA2+Sox2+ cells” value [1] was “rare FoxA2+Sox2+ cells” and the “effect on Nkx2.1+ cells” value ([2]; treatment at the anteriorization step, then BMP4/FGF2/WNT agonist cocktail 2 days) was “few Nkx2.1+ cells”.

B3: Noggin: a BMP4 antagonist (protein, UniProt Q13253 28-232, looked up)
Noggin: QHYLHIRPAPSDNLPLVDLIEHPDPIFDPKEKDLNETLLRSLLGGHYDPGFMATSPPEDRPGGGGGAAGGAEDLAELDQLLRQRPSGAMPSEIKGLEFSEGLAQGKKQRLSKKLRRKLQMWLWSQTFCPVLYAWNDLGSRFWPRYVKVGSCFSKRSCSVPEGMVCKPSKSVHLTVLRWRCQRRGGQRCGWIPIQYPIISECKCSC
With B3 the requirement for anteriorization [3] was “not necessary”.

From patent US11987807B2, “Isolated human lung progenitor cells and uses thereof” (THE GENERAL HOSPITAL CORPORATION, priority 2012, dated 2024)
